Data on 42 compounds can be found in patent publication US20120059162A1, “FUSED IMIDAZOLE DERIVATIVE HAVING TTK INHIBITORY ACTION” (Oncotherapy Science, Inc., priority 2009, published 2012).

Assay [1] concerns the target T1, TTK (Homo sapiens, UniProt P33981).
T1 sequence (P33981 1-857): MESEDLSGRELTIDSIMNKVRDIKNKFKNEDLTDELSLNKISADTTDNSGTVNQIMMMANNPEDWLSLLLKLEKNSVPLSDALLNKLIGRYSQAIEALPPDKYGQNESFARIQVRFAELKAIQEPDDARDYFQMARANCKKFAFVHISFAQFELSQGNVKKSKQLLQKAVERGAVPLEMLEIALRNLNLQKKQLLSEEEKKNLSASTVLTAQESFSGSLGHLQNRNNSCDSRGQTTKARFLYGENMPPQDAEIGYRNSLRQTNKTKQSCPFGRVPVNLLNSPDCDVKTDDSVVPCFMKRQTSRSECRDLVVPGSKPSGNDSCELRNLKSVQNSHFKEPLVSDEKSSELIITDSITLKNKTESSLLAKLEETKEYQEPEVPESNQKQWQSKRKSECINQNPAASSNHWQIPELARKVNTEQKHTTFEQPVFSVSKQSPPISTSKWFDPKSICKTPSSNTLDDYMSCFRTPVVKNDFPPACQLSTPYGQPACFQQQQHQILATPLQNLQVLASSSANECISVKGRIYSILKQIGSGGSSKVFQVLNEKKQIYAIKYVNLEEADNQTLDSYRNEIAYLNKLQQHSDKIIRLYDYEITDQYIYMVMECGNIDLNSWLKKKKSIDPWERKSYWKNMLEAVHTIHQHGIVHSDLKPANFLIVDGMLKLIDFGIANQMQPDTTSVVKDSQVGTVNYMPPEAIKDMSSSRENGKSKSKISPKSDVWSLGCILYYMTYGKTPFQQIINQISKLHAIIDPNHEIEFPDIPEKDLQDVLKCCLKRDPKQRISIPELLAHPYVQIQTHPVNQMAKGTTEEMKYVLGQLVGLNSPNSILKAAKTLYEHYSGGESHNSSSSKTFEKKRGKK
Nature of the assay: TTK assay: screening of TTK kinase activity suppressing action using p38 MAPK peptide. The assay is classed as biochemical. As to conditions: read-out: TTK IC50. In short, it runs like this:
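TTK (4 μg/ml in enzyme solution) mixed with p38 MAPK peptide and ATP (each 60 μM in substrate solution) in Tris-HCl pH 7.5 with MgCl2, DTT, Na3VO4, β-glycerophosphate, BSA. Reaction aliquot captured on NeutrAvidin plate, detected with Eu-labelled anti-mouse IgG by time-resolved fluorescence; inhibition relative to no-compound signal.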

Assay [2] concerns A549. Nature of the assay: A549 assay: screening of cancer cell growth inhibiting compound. The assay is classed as cell-based. The settings on record: Homo sapiens, A549 cells, read-out: A549 IC50. In short, it runs like this: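 A549 cells (1×10^4/ml) in D-MEM with 10% FBS were pre-incubated one day at 37 °C, then exposed to compound dilutions for three further days. Viable cell number read by WST-8 (1–4 hours), absorbance 450 nm (reference 620 nm); inhibition calculated relative to untreated wells.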

Like-named read-outs stand apart in the source and are kept apart here. Some results are limits rather than exact numbers.

As usually defined, the IC50 is the concentration needed to halve the response being measured. As for `CC(C)ONc1cc(NC2CCCCC2)nn2c(-c3ccc(C(=O)NC4CC4)cc3)cnc12` [Example 2-161], the IC50 in assay [1] (p38 MAPK peptide substrate) was 5.6 nM; in assay [2] (72 h, three days, WST-8) it was 500 to 1000 nM.
For `CC(CNc1cc(NC2CCCCC2)nn2c(-c3ccc(C(=O)NC4CC4)cc3)cnc12)C(F)(F)F` (stereo not drawn) [Example 2-162] the same measures were 3.6 nM and 50 to 500 nM.
For `O=C(NC1CC1)c1ccc(-c2cnc3c(NC[C@H]4CC[C@H](O)CC4)cc(NC4CCCCC4)nn23)cc1` [Example 2-164] the same measures were 3.3 nM and 50 to 500 nM.
For the compound `O=C(NC1CC1)c1ccc(-c2cnc3c(NCc4ccc(=O)[nH]c4)cc(NC4CCCCC4)nn23)cc1` [Example 2-165], the IC50 is 5.6 nM in assay [1] (p38 MAPK peptide substrate) and 1000 to 10000 nM in assay [2] (72 h, three days, WST-8).
For the compound `COC(C)CNc1cc(NC2CCCCC2)nn2c(-c3ccc(C(=O)NC4CC4)cc3)cnc12` (stereo not drawn) [Example 2-166], the IC50 in assay [1] (p38 MAPK peptide substrate) is 4.5 nM; in assay [2] (72 h, three days, WST-8) it was 50 to 500 nM.
As to `O=C(NC1CC1)c1ccc(-c2cnc3c(NCC4CCCO4)cc(NC4CCCCC4)nn23)cc1` (stereo not drawn) [Example 2-167], the IC50 in assay [1] is 3.9 nM; in assay [2] (values given as IC50 intervals), 50 to 500 nM.
For `CC(CO)CNc1cc(NC2CCCCC2)nn2c(-c3ccc(C(=O)NC4CC4)cc3)cnc12` (stereo not drawn) [Example 2-168] the same measures were 3.3 nM and 50 to 500 nM.
For the compound `O=C(NC1CC1)c1ccc(-c2cnc3c(NCC4(O)CCOCC4)cc(NC4CCCCC4)nn23)cc1` [Example 2-169], the results for the half-maximal inhibitory concentration (IC50) in assay [1] and in assay [2] (values given as IC50 intervals) were 7.2 nM and 50 to 500 nM, respectively.
As to `CC1(Oc2cc(NCC3CCOCC3)c3ncc(-c4ccc(C(=O)NC5CC5)cc4)n3n2)CCCCC1` [Example 2-171, N-Cyclopropyl-4-(6-(1-methylcyclohexyloxy)-8-((tetrahydro-2H-pyran-4-yl)methylamino)imidazo[1,2-b]pyridazin-3-yl)benzamide], the IC50 was 3.5 nM in assay [1] and 50 to 500 nM in assay [2] (values given as IC50 intervals).
For `COc1cc(NCC2CCOCC2)c2ncc(-c3ccc(C(=O)NC4CC4)cc3)n2n1` [Example 2-172] the same measures were 20.3 nM and 500 to 1000 nM.
For `O=C(NC1CC1)c1ccc(-c2cnc3c(NCC4CCOCC4)cc(OC4CCCC4)nn23)cc1` [Example 2-173] the same measures were 5.4 nM and 50 to 500 nM.
For `CC(Oc1cc(NCC2CCOCC2)c2ncc(-c3ccc(C(=O)NC4CC4)cc3)n2n1)c1ccccc1` (stereo not drawn) [Example 2-174] the same measures were 14.1 nM and 50 to 500 nM.
Regarding `COCCOc1cc(NCC2CCOCC2)c2ncc(-c3ccc(C(=O)NC4CC4)cc3)n2n1` [Example 2-175], the IC50 in assay [1] is 11.4 nM; in assay [2] (values given as IC50 intervals), 50 to 500 nM.
For `N#Cc1ccc(Oc2cc(NCC3CCOCC3)c3ncc(-c4ccc(C(=O)NC5CC5)cc4)n3n2)cc1` [Example 2-177] the same measures were 14.3 nM and 50 to 500 nM.
For `CC(C)Oc1cc(NCC2CCOCC2)c2ncc(-c3ccc(C(=O)NC4CC4)cc3)n2n1` [Example 2-178] the same measures were 7.1 nM and 50 to 500 nM.
For `COc1ccc(Oc2cc(NCC3CCOCC3)c3ncc(-c4ccc(C(=O)NC5CC5)cc4)n3n2)cc1` [Example 2-179] the same measures were 3.7 nM and not above 50 nM.
Consider `O=C(NC1CC1)c1ccc(-c2cnc3c(NCC4CCOCC4)cc(OC4CCNCC4)nn23)cc1` [Example 2-180], for which the IC50 in assay [1] is 12.2 nM; in assay [2] (values given as IC50 intervals), 1000 to 10000 nM.
For `O=C(NC1CC1)c1ccc(-c2cnc3c(NCC4CCOCC4)cc(OC4CCCCCC4)nn23)cc1` [Example 2-181] the same measures were 10.2 nM and 50 to 500 nM.
For `CC(C)(C)Oc1cc(NCC2CCOCC2)c2ncc(-c3ccc(C(=O)NC4CC4)cc3)n2n1` [Example 2-182] the same measures were 8.4 nM and 50 to 500 nM.
For `O=C(NC1CC1)c1ccc(-c2cnc3c(NCC4CCOCC4)cc(OCC(F)(F)F)nn23)cc1` [Example 2-183] the same measures were 5.7 nM and 50 to 500 nM.
`CC(Oc1cc(NCC2CCOCC2)c2ncc(-c3ccc(C(=O)NC4CC4)cc3)n2n1)C(F)(F)F` (stereo not drawn) [Example 2-184]: the IC50 in assay [1] is 5.6 nM; in assay [2] (values given as IC50 intervals) it was 50 to 500 nM.
For `CC(C)(Oc1cc(NCC2CCOCC2)c2ncc(-c3ccc(C(=O)NC4CC4)cc3)n2n1)C(F)(F)F` [Example 2-185] the same measures were 2.7 nM and 50 to 500 nM.
For `O=C(NC1CC1)c1ccc(-c2cnc3c(NCC4CCOCC4)cc(OC4CCC(C(F)(F)F)CC4)nn23)cc1` (stereo not drawn) [Example 2-186] the same measures were 6.8 nM and 500 to 1000 nM.
Regarding `CC1(C)CCC(Oc2cc(NCC3CCOCC3)c3ncc(-c4ccc(C(=O)NC5CC5)cc4)n3n2)CC1` [Example 2-187], the IC50 in assay [1] is 7.8 nM; in assay [2] (values given as IC50 intervals), 500 to 1000 nM.
For the compound `O=C(NC1CC1)c1ccc(-c2cnc3c(NCC4CCOCC4)cc(OC4CCCCC4O)nn23)cc1` (stereo not drawn) [Example 2-188], the figures for the IC50 in assay [1] and in assay [2] (values given as IC50 intervals) were 5.3 nM and 50 to 500 nM, respectively.
For `NC1CCCCC1Oc1cc(NCC2CCOCC2)c2ncc(-c3ccc(C(=O)NC4CC4)cc3)n2n1` (stereo not drawn) [Example 2-189] the same measures were 8.6 nM and 500 to 1000 nM.
With `O=C(NC1CC1)c1ccc(-c2cnc3c(NCC4CCOCC4)cc(OCC45CC6CC(CC(C6)C4)C5)nn23)cc1` [Example 2-190], the results for the IC50 in assay [1] and in assay [2] (values given as IC50 intervals) were 16.1 nM and 1000 to 10000 nM, respectively.
For `O=C(NC1CC1)c1ccc(-c2cnc3c(NCC4CCOCC4)cc(OC4C5CC6CC(C5)CC4C6)nn23)cc1` (stereo not drawn) [Example 2-191] the same measures were 3.9 nM and 50 to 500 nM.
For the compound `CC1(Oc2cc(NCC3CCOCC3)c3ncc(-c4ccc(C(=O)NC5CC5)cc4)n3n2)CCCC1` [Example 2-192], the figures for the IC50 in assay [1] and in assay [2] (values given as IC50 intervals) were 2.1 nM and 50 to 500 nM, respectively.
For `O=C(NC1CC1)c1ccc(-c2cnc3c(NCC4CCOCC4)cc(OC45CC6CC(CC(C6)C4)C5)nn23)cc1` [Example 2-193] the same measures were 6 nM and 50 to 500 nM.
For `N#Cc1ccc(-c2cc(NCC3CCOCC3)c3ncc(-c4ccc(C(=O)NC5CC5)cc4)n3n2)cn1` [Example 2-199] the same measures were 7.4 nM and 50 to 500 nM.
For `Cc1cc(C#N)ccc1-c1cc(NCC2CCOCC2)c2ncc(-c3ccc(C(=O)NC4CC4)cc3)n2n1` [Example 2-202] the same measures were 3.5 nM and 50 to 500 nM.
Regarding `N#Cc1cccc(-c2cc(NCC3CCOCC3)c3ncc(-c4ccc(C(=O)NC5CC5)cc4)n3n2)c1` [Example 2-203], the IC50 in assay [1] is 4.7 nM; in assay [2] (values given as IC50 intervals), 50 to 500 nM.
For `COc1cc(C#N)ccc1-c1cc(NCC2CCOCC2)c2ncc(-c3ccc(C(=O)NC4CC4)cc3)n2n1` [Example 2-205] the same measures were 4.5 nM and not above 50 nM.
For `N#Cc1ccc(-c2cc(NCC3CCOCC3)c3ncc(-c4ccc(C(=O)NC5CC5)cc4)n3n2)c(Cl)c1` [Example 2-206] the same measures were 2.8 nM and 50 to 500 nM.
For `O=C(NC1CC1)c1ccc(-c2cnc3c(NCC4CCOCC4)cc(C=C4CCCCC4)nn23)cc1` [Example 2-207] the same measures were 5.7 nM and 500 to 1000 nM.
Turning to `O=C(NC1CC1)c1ccc(-c2cnc3c(NCC4CCOCC4)cc(CC4CCCCC4)nn23)cc1` [Example 2-208], the IC50 is 7.1 nM in assay [1] and 50 to 500 nM in assay [2] (values given as IC50 intervals).
For `O=C(NC1CC1)c1ccc(-c2cnc3c(NCC4CCOCC4)cc(C=C4CCCC4)nn23)cc1` [Example 2-209], the figures for the IC50 in assay [1] and in assay [2] (values given as IC50 intervals) were 8.2 nM and 50 to 500 nM, respectively.
For `O=C(NC1CC1)c1ccc(-c2cnc3c(NCC4CCOCC4)cc(CC4CCCC4)nn23)cc1` [Example 2-210], the values for the 50% inhibitory concentration (IC50) in assay [1] and in assay [2] (values given as IC50 intervals) were 20.3 nM and 1000 to 10000 nM, respectively.
For `O=C(NC1CC1)c1ccc(-c2cnc3c(NCC4CCOCC4)cc(C4=CCNCC4)nn23)cc1` [Example 2-211], the IC50 in assay [1] is 8.3 nM; in assay [2] (values given as IC50 intervals), 50 to 500 nM.
For `O=C(NC1CC1)c1ccc(-c2cnc3c(NCC4CCOCC4)cc(C4CCNCC4)nn23)cc1` [Example 2-212] the same measures were 23.1 nM and 1000 to 10000 nM.
Consider `CC(=O)N1CC=C(c2cc(NCC3CCOCC3)c3ncc(-c4ccc(C(=O)NC5CC5)cc4)n3n2)CC1` [Example 2-213], for which the IC50 in assay [1] is 12 nM; in assay [2] (values given as IC50 intervals), 50 to 500 nM.
